Results from paper PMC11883425, “The synthesis and investigation of novel 3-benzoylbenzofurans and pyrazole derivatives for anti-HIV activity” (RSC Medicinal Chemistry, 2025).
Where two headings read alike, the source gives them in different places.

What was measured:
HIV-1 Q23 pseudovirus = assay: HIV-1 whole virus inhibition assay, Q23 pseudovirus (luciferase, TZM-bl cells); assay type: cell-based
Procedure: (§1) The HIV pseudoviruses were produced from the plasmids that were kindly donated by Dr Mthunzi-Kufa (CSIR, South Africa). Competent DH5α cells and STBL2 cells were transformed with envelope (CAP210.2.00.E8 and Q23.17) and backbone plasmid (HIV-1 SG3 ΔEnv) through heat-shock at 42 °C for 90 seconds and cooled in ice for 5 minutes. The transformed cells were grown in Luria Bertani medium containing 100 μg mL^−1 ampicillin and glycerol stocks were prepared. The transformed cells were grown at 37 °C in a 200 rpm shaking incubator overnight and the plasmids were isolated from the cells using a GeneJET plasmid Miniprep Kit (ThermoFisher Scientific Inc). The purity of the isolated plasmids was assessed for purity using Nanodrop. The HEK 293T cells were co-transfected with the backbone (10 μg) and envelope plasmids (5 μg) using the PolyFect Transfection Reagent (QIAGEN N.V) for 8–12 hours and the transfected cells were grown for 48 hours producing pseudoviruses which were collected, and stocks stored at −80 °C.
(§2) The compounds were serial diluted from 100 to1.56 μM in 96 well plates (Separation Scientific SA (Pty) Ltd) and incubated with either CAP210 or Q23 pseudoviruses (200 TCID50) and incubated for 1 hour. The TZM-bl cells (1 × 10^5 cells per mL containing 7.5 μg mL^−1 DEAE-dextran) were added and incubated for 48 hours. The 96 well plates were centrifuged, and the supernatant was removed leaving only 50 μL in each well. The Bright-Glo™ Luciferase substrate (Anatech Instruments (Pty) Ltd) (50 μL) was added to each well and incubated for 2 minutes in the dark and chemiluminescence readings were taken in a Corning® 96-well white polystyrene plate using a SpectraMax® Paradigm® Multi-Mode Microplate Reader.

HIV-1 CAP210 pseudovirus = assay: HIV-1 whole virus inhibition assay, CAP210 pseudovirus (luciferase, TZM-bl cells); assay type: cell-based
Procedure: as §1, §2

[1] = Cytotoxicity in TZM-bl cells by MTT assay; assay type: cell-based; conditions: human, MTT assay, 48 hours, mean ± SEM
Procedure: All cell culture reagents and cell growth medium were purchased from Sigma-Aldrich/Merck. The cell lines are TZM-bl cells (HeLa cells derived cell that is genetically engineered to contain CD4 and CCR5/CXCR4 receptor) were obtained from NIH AIDS Reagent Program and HEK 293T (derived from human embryonic kidney cells) were received as donations from the lab of Dr Patience Mthunzi, Biophotonics laboratory, CSIR. […] The cells were cultured in T-75 culture flasks (Lasec SA (Pty) Ltd Johannesburg) in Dulbecco's modified Eagle's medium (DMEM) with 3.7 g L^−1 […], 0.05% (v/v) gentamicin/mL, 1% penicillin/streptomycin and 10% heat-inactivated fetal bovine serum (Celtic Molecular Diagnostics). All incubations for tissue cell culture were conducted in a 37 °C, 5% CO2, and 95% humidity incubator.
(§3) The cytotoxicity of compounds was evaluated in TZM-bl cells since these cells are susceptible to HIV infections and would be used for the evaluation of HIV entry inhibition by 3-benzoylbenzofurans and pyrazole derivatives.[74] MTT dye (3-(4,5-dimethylthiazol-2-yl)-2,5-diphenyltetrazolium bromide), which is reduced by viable cells to produce […] purple formazan, was then measured and correlated with cell viability.[75] TZM-bl cells were cultured to confluency in DMEM containing 10% FBS and harvested by centrifugation at 1200 × g for 5 minutes. The cells were counted at 1 × 10^5 cells per mL per well and were seeded overnight, followed by treatment with serially diluted compounds from 500 to 0.98 μM for 48 hours. The peripheral blood mononuclear cells (PBMCs) were isolated from the blood of HIV-negative volunteers, treated with phytohaemagglutinin-protein (PHA, 4 μg mL^−1) to stimulate the cells for 2 hours. PBMCs were diluted in RPMI-1640 medium, counted and 1 × 10^6 cells per mL were treated with compounds (500 to 0.98 μM) for 48 hours. Cells were harvested by centrifugation at 1200 × g for 5 minutes, and the supernatants were removed. For the PBMCs, MTS dye (3-(4,5-dimethylthiazol-2-yl)-5-(3-carboxymethoxyphenylo)-2-(4-sulfophenyl)-2H-tetrazolium) was used.[76] A 100 μL of tetrazolium dye (5 mg mL^−1 MTT prepared in DMEM or 1 : 9 dilution MTS prepared in RPMI-1640) was added to the wells and incubated for 4 to 24 hours. MTT samples were solubilized with 100 μL solubilization buffer (1 mL HCl: 9 mL isopropanol) for 30 minutes, and the absorbance reading was taken at 550 nm and 690 nm wavelengths. MTS sample readings were taken at 490 nm without a solubilization step using the SpectraMax^R Paradigm^R Multi-Mode Detection Platform plate reader (Molecular Devices, California, USA).

HIV-1 PR = target: T1, HIV-1 PR (Human immunodeficiency virus type 1 group M subtype B, UniProt P04585); assay: HIV-1 protease inhibition assay (fluorogenic substrate); assay type: biochemical; conditions: for SI (HIV-1 PR): CC50 PBMCs / IC50 HIV-1 PR
T1 construct: 2 μL recombinant HIV-PR (0.2 μg mL^−1) was added only to reaction wells
Procedure: Compounds were serially diluted in protease assay buffer (0.1 M CH3COONa, 1 M NaCl, 1 mM EDTA, 1 mM DTT, and 1 mg mL^−1 BSA; pH 4.7), making a final concentration of 75 to 9.4 μM, and 49 μL of compounds were added to wells. 49 μL protease substrate 1 (10 μM) was added to each well, and 2 μL recombinant HIV-PR (0.2 μg mL^−1) was added only to reaction wells except for reaction blanks, where it was replaced with 2 μL assay buffer. The solutions were mixed and incubated at 37 °C for 1 hour. Endpoint fluorescence readings at an excitation wavelength of 370 nm and an emission wavelength of 520 nm.

[2] = Cytotoxicity in PBMCs by MTS assay; assay type: cell-based; conditions: human, peripheral blood mononuclear cells (PBMCs), PHA-stimulated, HIV-negative PBMCs
Procedure: as §3

CAP210 pseudovirus = assay: Time of drug addition assay, CAP210 pseudovirus in TZM-bl cells; assay type: cell-based, HIV-1; conditions: added 0, 2, 4, 6, 8 hours post-infection
Procedure: Fig. 5 Time of addition assay of CAP210 HIV infection treated with active compounds. TZM-bl cells were infected with CAP210 pseudoviruses and treated with compounds at various hours post-infection. NVP, 3g, and 4b were used at 3 μM, while 5f and 5h were used at 25 μM. The bars represent the mean ± SEM obtained from three independent experiments.
TZM-bl cells (1 × 10^5 cells per mL containing 7.5 μg mL^−1 DEAE-dextran) were infected with CAP210 pseudovirus at 400 TCID50 and incubated at 37 °C for 48 hours. The compounds were added to the wells at various time points (0, 2, 4, 6, and 8 hours) post-infection. […] After 48 hours, the cells were centrifuged at 1200 × g for 5 minutes, culture media was removed, leaving 50 μL, and Bright-Glo substrate (50 μL) was added to detect luciferase activity for 2 minutes at 37 °C. Inhibition of HIV pseudoviruses by active compounds was detected by reading for chemiluminescence using a Corning® 96-well white polystyrene using the SpectraMax® Paradigm® Multi-Mode Microplate Reader.

[3] = TZM-bl, 48 h, read-out: IC50 (μM) Q23, Q23 pseudovirus, TZM-bl cells, 48 hours
[4] = TZM-bl, 48 h, read-out: IC50 (μM) CAP210, CAP210 pseudovirus, TZM-bl cells, 48 hours
[5] = lowest concentrations tested, Fig. 3

Row | Structure (SMILES) | IC50 (HIV-1 Q23 pseudovirus; [3]) | IC50 (HIV-1 CAP210 pseudovirus; [4]) | CC50 at 48 h [1] | other results
1 | COc1cc(F)ccc1C(=O)c1coc2ccc(O)cc12 [3f, (4-fluoro-2-methoxyphenyl)(5-hydroxy-1-benzofuran-3-yl)methanone] | 40.6 ± 7.85 µM | 11.2 ± 0.31 µM | 41.9 ± 6.33 µM | –
2 | COc1ccc(C(=O)c2coc3ccc(O)cc23)c(OC)c1OC [3g, (5-Hydroxybenzofuran-3-yl)(2,3,4-trimethoxyphenyl)methanone] | – | – | 79.9 ± 7.25 µM | IC50 (HIV-1 PR): 70.9 ± 12.4 µM; SI (HIV-1 PR) (HIV-1 PR): 1.3; CC50 at 48 h [2]: 89.5 ± 11.6 µM; inhibition of HIV infection by time of addition (CAP210 pseudovirus; 3 μM): inhibit HIV infections for up to 8 hours
3 | COc1ccc(OC)c(C(=O)c2coc3ccc(O)cc23)c1 [3h, (5-Hydroxybenzofuran-3-yl)(2,5-dimethoxyphenyl)methanone] | 5.74 ± 1.51 µM | 4.45 ± 0.82 µM | 50 ± 10.5 µM | –
4 | COc1ccc(OC)c(C(=O)c2coc3cc(C)c(OC)c(C)c23)c1 [4a, (2,5-Dimethoxyphenyl)(5-methoxy-4,6-dimethyl-1-benzofuran-3-yl)methanone] | 18.1 ± 1.78 µM | 8.12 ± 2.56 µM | 59.1 ± 6.56 µM | –
5 | COc1ccc(OC)c(C(=O)c2coc3c(C)cc(OC)c(C)c23)c1 [4b, (2,5-Dimethoxyphenyl)(5-methoxy-4,7-dimethyl-1-benzofuran-3-yl)methanone] | – | – | 8.42 ± 1.16 µM | IC50 (HIV-1 PR): 57.5 ± 10.1 µM; SI (HIV-1 PR) (HIV-1 PR): 0.7; CC50 at 48 h [2]: 41.3 ± 6.78 µM; inhibition of HIV infection by time of addition (CAP210 pseudovirus; 3 μM): inhibit HIV infections for up to 8 hours
6 | COc1ccc(OC)c(C(=O)c2coc3c2cc(OC)c2ccccc23)c1 [4c, (2,5-Dimethoxyphenyl)(5-methoxynaphtho[1,2-b]furan-3-yl)methanone] | 12.6 ± 0.53 µM | 2.43 ± 1.28 µM | 9.65 ± 2.37 µM | –
7 | COc1ccc(Br)cc1C(=O)c1coc2c1cc(OC)c1ccccc12 [4d, (5-Bromo-2-methoxyphenyl)(5-methoxynaphtho[1,2-b]furan-3-yl)methanone] | 22.4 ± 3.47 µM | 3.28 ± 1.48 µM | 7.77 ± 1.54 µM | –
8 | COc1cc(F)ccc1C(=O)c1coc2c1cc(OC)c1ccccc12 [4e, (4-Fluoro-2-methoxyphenyl)(5-methoxynaphtho[1,2-b]furan-3-yl)methanone] | 20.9 ± 2.2 µM | 4.27 ± 0.19 µM | 35.2 ± 2.32 µM | –
9 | COc1ccc(OC)c(-c2n[nH]cc2-c2c(C)c(OC)cc(C)c2O)c1 [5b, 2-[3-(2,5-Dimethoxyphenyl)-1H-pyrazol-4-yl]-4-methoxy-3,6-dimethylphenol] | 10.1 ± 1.66 µM | 7.87 ± 0.91 µM | 46.5 ± 6.66 µM | –
10 | COc1ccc(OC)c(-c2n[nH]cc2-c2cc(OC)c3ccccc3c2O)c1 [5c, 2-[3-(2,5-Dimethoxyphenyl)-1H-pyrazol-4-yl]-4-methoxynaphthalen-1-ol] | 13 ± 3.75 µM | 20.5 ± 6.8 µM | 47.7 ± 17.7 µM | –
11 | COc1ccc(Br)cc1-c1n[nH]cc1-c1cc(OC)c2ccccc2c1O [5d, 2-[3-(5-Bromo-2-methoxyphenyl)-1H-pyrazol-4-yl]-4-methoxynaphthalen-1-ol] | 16.2 ± 2.55 µM | 20.8 ± 1 µM | 75 ± 6.4 µM | –
12 | COc1cc(F)ccc1-c1n[nH]cc1-c1cc(OC)c2ccccc2c1O [5e, 2-[3-(4-Fluoro-2-methoxyphenyl)-1H-pyrazol-4-yl]-4-methoxynaphthalen-1-ol] | 15.7 ± 8.17 µM | 29.09 ± 0.18 µM | 103 ± 11.1 µM | –
13 | COc1cc(F)ccc1-c1n[nH]cc1-c1cc(O)ccc1O [5f, 2-[3-(4-Fluoro-2-methoxyphenyl)-1H-pyrazol-4-yl]benzene-1,4-diol] | – | – | 36.1 ± 7.95 µM | anti-HIV activity (Q23) (HIV-1 Q23 pseudovirus; [5]): over 90%; IC50 (HIV-1 PR): 31.6 ± 3.83 µM; SI (HIV-1 PR) (HIV-1 PR): 3.1; anti-HIV activity (CAP210) (HIV-1 CAP210 pseudovirus; [5]): over 90%; CC50 at 48 h [2]: 98.2 ± 1.3 µM; inhibition of HIV infection by time of addition (CAP210 pseudovirus; 25 μM): only inhibited HIV infections when added on the onset of infection
14 | COc1ccc(-c2n[nH]cc2-c2cc(O)ccc2O)c(OC)c1OC [5g, 2-[3-(2,3,4-Trimethoxyphenyl)-1H-pyrazol-4-yl]benzene-1,4-diol] | < 10 µM | 13.8 ± 1.7 µM | 140 ± 17.1 µM | IC50 (HIV-1 Q23 pseudovirus; {}): 9.93 ± 0.69 µM
15 | COc1ccc(OC)c(-c2n[nH]cc2-c2cc(O)ccc2O)c1 [5h, 2-[3-(2,5-Dimethoxyphenyl)-1H-pyrazol-4-yl]benzene-1,4-diol] | < 10 µM | < 10 µM | 142 ± 13.2 µM | IC50 (HIV-1 Q23 pseudovirus; {}): 8.14 ± 2.63 µM; IC50 (HIV-1 PR): 50.7 ± 0.78 µM; SI (HIV-1 PR) (HIV-1 PR): 1.6; IC50 (HIV-1 CAP210 pseudovirus; {}): 6.31 ± 0.31 µM; CC50 at 48 h [2]: 83.2 ± 9.7 µM; inhibition of HIV infection by time of addition (CAP210 pseudovirus; 25 μM): only inhibited HIV infections when added on the onset of infection
